These results are taken from article PMC10817531, “Chlorinated Enyne Fatty Acid Amides from a Marine Cyanobacterium: Discovery of Taveuniamides L-M and Pharmacological Characterization of Taveuniamide F as a GPCR Antagonist with CNR1 Selectivity” (Marine Drugs, 2023).

“And” between values parts separate entries of the source, which are not always exact repeats. Equal entries are not always repeated.

One experiment deals with T1, CHRM4 (Homo sapiens, UniProt P08173).
T1 construct: host or cells: CHO-K1
T1 sequence (P08173 1-479): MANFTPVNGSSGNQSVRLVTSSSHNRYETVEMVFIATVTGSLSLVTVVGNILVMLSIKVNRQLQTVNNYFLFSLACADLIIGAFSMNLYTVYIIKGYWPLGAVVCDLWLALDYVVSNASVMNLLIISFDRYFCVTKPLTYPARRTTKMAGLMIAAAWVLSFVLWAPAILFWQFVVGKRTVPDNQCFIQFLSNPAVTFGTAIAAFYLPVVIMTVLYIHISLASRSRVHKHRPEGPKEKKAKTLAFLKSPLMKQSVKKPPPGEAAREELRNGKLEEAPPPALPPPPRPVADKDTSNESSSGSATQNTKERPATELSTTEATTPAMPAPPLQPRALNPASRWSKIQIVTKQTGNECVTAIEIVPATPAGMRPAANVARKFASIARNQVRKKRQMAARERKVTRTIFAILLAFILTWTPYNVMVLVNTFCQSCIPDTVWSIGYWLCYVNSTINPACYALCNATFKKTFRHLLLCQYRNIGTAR
The experiment in a line: PathHunter β-arrestin GpcrMAX assay. The experiment is classed as cell-based. The procedure:
GpcrMAX panel biosensor assays were used to characterize taveuniamide F (4, 20 µM) (agonist and antagonist mode). The experiments were carried out by DiscoveRx Corporation (Fremont, CA, USA) as described before, using PathHunter β-arrestin enzyme fragment complementation (EFC) technology.
Dose–response curves were obtained by subjecting taveuniamide F (4) to a secondary antagonist screen utilizing ten GPCR biosensor assays (Arrestin) against the following targets: GPR119, NPSR1b, HTR2C, CCR9, CHRM4, GPR120, HTR2A, GPR103, CNR1, and CNR2. Stably transfected HEK293 cells expressing GPR119, U2OS cells expressing NPSR1b, HTR2C and HTR2A, and CHO-K1 cells expressing the rest of the mentioned receptors, were incubated with 4 for 30 min. The assays were performed at 10-point concentrations using 3-fold serial dilutions in duplicate, where the highest concentration was 50 µM.

For the next experiment, the target named is T2, CNR1 (Homo sapiens, UniProt P21554).
T2 construct: host or cells: CHO-K1
The experiment in a line: cAMP Hunter eXpress CNR1 (CB1) CHO-K1 GPCR assay. The experiment is classed as cell-based. The procedure:
The experiments (agonist and antagonist mode) were carried out by DiscoveRx Corporation (Fremont, CA, USA). Human CNR1 in stably transfected CHO-K1 cells were seeded in a total volume of 20 μL into white-walled, 384-well microplates and incubated at 37 °C overnight. Before testing, cell plating media was exchanged with 10 μL of assay buffer (HBSS + 10 mM HEPES).
As described in catalog ref. (86-0007P-2277AG) for the agonist mode, intermediate dilution of sample stocks was performed to generate 4× samples in assay buffer. A total of 5 μL of 4× sample and 5 μL of 4× forskolin were added to cells and incubated at 37 °C for 30 min. The final assay vehicle concentration was 1%. The results are expressed as a percent efficacy relative to the maximum response of the control ligand.
As described in catalog ref. (86-0007P-2277AN) for the antagonist mode, intermediate dilution of sample stocks was performed to generate 4× samples in assay buffer. A total of 5 μL of 4X sample was added to cells and incubated at 37 °C for 30 min, and 5uL of 4× EC80 of CP55940 in 4× forskolin reagent was added and cells incubated for 37 °C for 30 min. The final assay vehicle concentration was 1%. The results are expressed as a percent inhibition of the control ligand. The assays were performed at 10-point concentrations of 4 using 3-fold serial dilutions in duplicate, where the highest concentration was 50 µM.

[1] abbreviates: antagonist mode (% inhibition), 20 µM.

T2 sequence (P21554 whole entry): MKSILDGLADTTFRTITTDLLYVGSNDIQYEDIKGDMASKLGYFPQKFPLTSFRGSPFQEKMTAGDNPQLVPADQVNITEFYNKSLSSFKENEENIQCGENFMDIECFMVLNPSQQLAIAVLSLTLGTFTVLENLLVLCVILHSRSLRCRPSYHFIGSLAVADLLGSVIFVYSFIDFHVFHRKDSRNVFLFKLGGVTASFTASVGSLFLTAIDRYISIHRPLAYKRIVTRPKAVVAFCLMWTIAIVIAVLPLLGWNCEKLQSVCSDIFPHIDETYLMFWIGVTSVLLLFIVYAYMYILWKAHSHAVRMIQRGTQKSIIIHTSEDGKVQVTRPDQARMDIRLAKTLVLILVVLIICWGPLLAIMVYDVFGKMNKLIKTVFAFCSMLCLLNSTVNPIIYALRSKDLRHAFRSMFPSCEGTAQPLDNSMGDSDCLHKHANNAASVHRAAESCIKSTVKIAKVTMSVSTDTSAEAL

Broadly, the IC50 is the point on the concentration scale where inhibition reaches its midpoint. What is called inhibition is the change of the read-out against control, counted positive when it falls. A low value points to little suppression. For the molecule `CC(=O)N[C@@H](CCCC#C/C=C/Cl)CCCCCCC(Cl)Cl` [Compound 4, taveuniamide F], the IC50 against CHRM4 (antagonist dose–response, 10-point, CHO-K1 cells, 30 min) is 1.9 µM and 1.92 µM. At CHRM4 (setting [1]), this molecule yielded an inhibition of no less than 80% and an inhibition at 20 µM of 98.2%. Moreover, the “mode of activity in CNR1 cAMP functional assay” value on CNR1 (agonist and antagonist mode) is “antagonist/inverse agonist”. The IC50 on CNR1 (antagonist mode, EC80 of CP55940, forskolin, CHO-K1 cells, read-out: IC50, inhibition of CNR1-agonist-induced cAMP downregulation) was 21 µM.
